Measured values: patent publication US20210079039A1, “COMPOSITIONS AND METHODS FOR THE SELECTIVE DELIVERY OF THERAPEUTIC AND IMAGING AGENTS” (Avelas Biosciences, Inc., priority 2018, published 2021)
Numbered stars: 1 amine (or outer) side, 2 acyl side, 3 side chain; on linkers, the order of the positions; unused ones are H or OH. Square brackets hold non-standard residues; d marks the D form. Peptide text beside a SMILES is read from it. * marks the point of attachment. ξ: configuration not given here. Dolaproine(all-ξ) = COC(C(C)C(=O)[*:2])C1CCCN1[*:1]; Dolaproine = CO[C@@H]([C@@H]1CCCN1)[C@@H](C)C(=O)O; Hexanoyl(6-maleimido) = O=C1C=CC(=O)N1CCCCCC(=O)*; X1 = CC(C)[C@@H](C(=O)[*:2])N(C)C[C@@H](C)N[*:1]; Dil = CC[C@H](C)[C@H](NC)[C@@H](CC(=O)O)OC; X2 = CCC(C)C(C(CC(=O)[*:2])OC)N(C)[*:1]; X5 = CC(C)[C@@H](C(=O)*)N(C)C[C@@H](C)N; X4 = CC(C)[C@@H](C(=O)*)N(C)C[C@H](C)N; Cit = NC(=O)NCCC[CH](N)C(=O)O; NMeV = CN[CH](C(=O)O)C(C)C; ξCit = NC(=O)NCCCC(N)C(=O)O; X3 = CC(N*)C(O)c1ccccc1; Me2Gly = CN(C)CC(=O)*

system: HT-1080 human fibrosarcoma tumor xenograft; assay: HT-1080 human fibrosarcoma tumor xenograft therapeutic model; format: in vivo, athymic nude mice; conditions: 0.6 to 3.0 mg/kg of cytotoxic agent component, IV on days 0 and 3, tumor volume at day 9
Description: Female athymic nude mice (8-10 weeks old) purchased from Charles River (Wilmington, 01887, MA) were used after 4-7 day of acclimatization period. Institutional Animal Care and Use Committee (IACUC) approved protocols #EB11-002-009-1 and CP-17-09. HT-1080 human fibrosarcoma tumor cells from ATCC (CCL-121™) were grown using standard cell culture techniques. Tumor cells (1×10^8 tumor cells/mL) were suspended in DPBS/Matrigel™ (1:1 vol) and implanted subcutaneously (50 μL tumor cell suspension/mouse) into the upper mammary fat pad or right flank of mice with individual identification number (ear tag). Four to seven days later when the average tumor volume was about 50-100 mm^3, mice were randomized into different experimental groups to have similar averaged (Mean±SEM) tumor volume and dosed with (i) vehicle and (ii) different doses of test compounds. Each group typically had 4 mice. For each involved tumor-bearing mouse, the tumor volume (mm^3) was measured using a caliper and calculated as follows: tumor volume=width^2×length/2. Test compounds were administered intravenously (tail vein) twice (two administrations 3 days apart) in conscious restrained tumor-bearing mice throughout the study. Individual tumor volume, body weight as well as clinical signs were recorded during the study. Each study was terminated on day 12 post-dosing initiation. Mice were euthanized by intracardiac ketamine-xylazine overdose after recording the last individual body weight and tumor volume. For each experimental group and study day, the tumor volumes from all mice were averaged and expressed as Mean±SD. In order to directly and objectively compare anti-tumor activity of candidate SDM's, tumor volume was assessed at the same Day 9 timepoint (6 days after the cessation of test compound administration) for each experimental cohort of test compound-treated group(s) and vehicle. Graphs show tumor volume in cubic millimeters versus time. […] Compound administration is indicated by downward arrow over data point on day 0 and 3.

Row | Compound | Efficacy (percent tumor growth inhibition versus vehicle)
1 | CCC(C)C(C(CC(=O)N1CCCC1C(OC)C(C)C(=O)NC(C)C(O)c1ccccc1)OC)N(C)C(=O)C(NC(=O)C(C(C)C)N(C)C(=O)CNC(=O)C(CCCNC(N)=O)NC(=O)C(NC(=O)CCCCCN1C(=O)C=CC1=O)C(C)C)C(C)C (stereo not drawn) [SDM-320, maleimidocaproyl-valine-citrulline-GlyMMAE] ({Hexanoyl(6-maleimido)}-V[Cit]G[NMeV]V[X2][Dolaproine(all-ξ)]-X3; configuration not given here) | Low (Low: <29% inhibition)
2 | CC[C@H](C)[C@@H]([C@@H](CC(=O)N1CCC[C@H]1[C@H](OC)[C@@H](C)C(=O)N[C@@H](Cc1ccccc1)C(=O)OC)OC)N(C)C(=O)[C@@H](NC(=O)[C@H](C(C)C)N(C)C[C@@H](C)NC(=O)C(CCCNC(N)=O)NC(=O)[C@@H](NC(=O)CCCCCN1C(=O)C=CC1=O)C(C)C)C(C)C (stereo partly drawn) [SDM-344] ({Hexanoyl(6-maleimido)}-V[ξCit][X1]V[Dil][Dolaproine]F-OMe) | Medium (Medium: ≥29% inhibition to <80% inhibition)
3 | CC[C@H](C)[C@@H]([C@@H](CC(=O)N1CCC[C@H]1[C@H](OC)[C@@H](C)C(=O)N[C@@H](Cc1ccccc1)C(=O)NC)OC)N(C)C(=O)[C@@H](NC(=O)[C@H](C(C)C)N(C)C(=O)CNC(=O)[C@H](CCCNC(N)=O)NC(=O)[C@@H](NC(=O)CCCCCN1C(=O)C=CC1=O)C(C)C)C(C)C [SDM-380] ({Hexanoyl(6-maleimido)}-V[Cit]G[NMeV]V[Dil][Dolaproine]F-NHMe) | Low (Low: <29% inhibition)

system: HT1080 Cells; assay: Active Cellular Cytotoxic (ACC) molecules efficacy in HT1080 cells in vitro assay; format: cell-based; conditions: Homo sapiens, HT-1080, 96 h, four days incubation, Prestoblue, average error of 38%
Description: Method: Plate cells one day prior to start of assay in 96 well black with clear bottom plates (Corning #3603), 2×10^4 cells per well in 100 μL of standard growth media (according to ATCC). Grow cells to 90% confluency.
Before start of assay rinse cells 1× with DPBS. Add compounds in a 3-fold serial dilution in triplicate (range e.g. 40 μM-18 nM), 100 μL per well in standard growth media.
Incubate four days then assay cell viability as described below. Remove media and rinse 1× with DPBS, then add 100 μL per well 10% Prestoblue Cell viability reagent (Thermo Fisher Scientific #A13261) in complete media. Return to incubator for two hours then read plate on SpectraMax M2e, bottom read excitation 555 emission 585 cut-off 570 which measures number of live cells. Cell viability was plotted versus compound concentration and data were fit to Log inhibitor vs response curve in GraphPad Prism and EC50 were determined.
Table 14 provides cellular activity data for exemplary ACCs (compound EC50 for reduction of viable cells).

Row | Compound | EC50 [nM]
4 | CC[C@H](C)[C@@H]([C@@H](CC(=O)N1CCC[C@H]1[C@H](OC)[C@@H](C)C(=O)N[C@@H](Cc1ccccc1)C(=O)O)OC)N(C)C(=O)[C@@H](NC(=O)[C@H](C(C)C)N(C)C(=O)CN(C)C)C(C)C [ACC-1] (Me2Gly-[NMeV]V[Dil][Dolaproine]F-OH) | 2100
5 | CC[C@H](C)[C@@H]([C@@H](CC(=O)N1CCC[C@H]1[C@H](OC)[C@@H](C)C(=O)N[C@@H](Cc1ccccc1)C(=O)O)OC)N(C)C(=O)[C@@H](NC(=O)[C@H](C(C)C)N(C)C(=O)CNC)C(C)C [ACC-4] (HELM PEPTIDE1{[Sar].[meV].V.[CC[C@H](C)[C@@H]([C@@H](CC(=O)[*:2])OC)N(C)[*:1]].[CO[C@H]([C@@H](C)C(=O)[*:2])[C@@H]1CCCN1[*:1]].F}$$$$V2.0) | 4400
6 | CC[C@H](C)[C@@H]([C@@H](CC(=O)N1CCC[C@H]1[C@H](OC)[C@@H](C)C(=O)N[C@@H](Cc1ccccc1)C(=O)O)OC)N(C)C(=O)[C@@H](NC(=O)[C@H](C(C)C)N(C)C(=O)CN)C(C)C [ACC-5] (HELM PEPTIDE1{G.[meV].V.[CC[C@H](C)[C@@H]([C@@H](CC(=O)[*:2])OC)N(C)[*:1]].[CO[C@H]([C@@H](C)C(=O)[*:2])[C@@H]1CCCN1[*:1]].F}$$$$V2.0) | 710
7 | CC[C@H](C)[C@@H]([C@@H](CC(=O)N1CCC[C@H]1[C@H](OC)[C@@H](C)C(=O)N[C@@H](Cc1ccccc1)C(=O)O)OC)N(C)C(=O)[C@@H](NC(=O)[C@H](C(C)C)N(C)C[C@@H](C)NC(=O)CN)C(C)C [ACC-8] (H-G[X1]V[Dil][Dolaproine]F-OH) | 910
8 | CC[C@H](C)[C@@H]([C@@H](CC(=O)N1CCC[C@H]1[C@H](OC)[C@@H](C)C(=O)N[C@@H](Cc1ccccc1)C(=O)O)OC)N(C)C(=O)[C@@H](NC(=O)[C@H](C(C)C)N(C)C[C@@H](C)N)C(C)C [ACC-10] (X5-V[Dil][Dolaproine]F-OH) | 1020
9 | CC[C@H](C)[C@@H]([C@@H](CC(=O)N1CCC[C@H]1[C@H](OC)[C@@H](C)C(=O)N[C@@H](Cc1ccccc1)C(=O)O)OC)N(C)C(=O)[C@@H](NC(=O)[C@H](C(C)C)N(C)C[C@H](C)N)C(C)C [ACC-11] (X4-V[Dil][Dolaproine]F-OH) | 1740
